{"source": "paper PMC4914250", "about": "“Cancer therapeutic approach based on conformational stabilization of mutant p53 protein by small peptides” (Oncotarget, 2016)", "test_system": "SW-480 colon cancer cells", "assay": "SW480 colon carcinoma xenograft, intratumoral injection", "assay_type": "in vivo, nude mice", "protocol": "The lead peptides were evaluated also in a colon carcinoma xenograft model, employing SW480 cells that harbor p53^R273H, P309S. The experiment was conducted on 15 mice, randomly divided into 3 groups: a control group treated with a cocktail of 3 ineffective peptides, a group treated with a cocktail of 3 effective pCAPs (250, 308, 325) and a group treated singly with pCAP-325. Tumors were allowed to reach visible size for 10 days before onset of treatment. […] Figures 6F, 6G show the mean weight and volume of excised tumors.\nFigure 6 Effect of lead peptides on tumor progression in vivo; colon cancer xenograft model In vivo effect of the indicated peptides in a mouse xenograft model of SW-480 colon cancer cells. 10^6 cells were injected and tumors were allowed to establish for 10 days. […] D., E. - Box plot of tumor volume and weight, respectively. TEXT PRINTED IN THE PICTURE: (A) Control peptides: SW-480 colon carcinoma cells (p53^273,309): 240% | (B) pCAP mix: SW-480 colon carcinoma cells (p53^273,309): -97% | (C) pCAP-325: SW-480 colon carcinoma cells (p53^273,309): -93.6% DOUBTS OF THE COPYIST ABOUT THIS PICTURE: Panels A-C: no measure is printed with the percentages (240%, -97%, -93.6%); each stands only beside a bracket at the right end of the plot\nMice (6 weeks athymic nude) were injected subcutaneously with 2×10^5-10^6 cells into each […]. All cell lines employed in these experiments stably express a luciferase reporter gene to enable monitoring of tumor growth by live imaging. 4-18 days later, when tumors reached visible size, the mice were randomly divided into several groups: a control group, treated with either a single control peptide or a mix of 2-3 control pCAPs, and groups treated with effective peptides, either a single peptide or a mix of three peptides. Peptides were administered by intratumoral injection of 6-10μg peptide per tumor in 40μl PBS, three times a week. Tumor growth over time was measured by live imaging, using the IVIS2000 system. Exposure time was calibrated to 20 seconds. 16 images were taken over 8 minutes and peak luminescence values were taken for each tumor. Experiments were conducted until tumors reached maximal allowed size of 1cm^3, at which time were sacrificed and tumors extracted, measured and weighed.", "key": {"[1]": {"details": "Experiment 4, SW-480 p53^R273H,P309S"}, "[2]": {"details": "Experiment 4, SW-480 p53^R273H,P309S, excised tumors"}}, "data": [{"substance": "myr-RRIRDPRILLLHFD [pCAP-325]", "values": [{"measurement": "% of tumors total regression", "setting": "[1]", "value": 20, "unit": "%"}, {"measurement": "IVIS average ratio to day 0", "setting": "[1]", "value": 6.4, "unit": "%"}, {"measurement": "Samples average size", "setting": "[2]", "value": 0.12}, {"measurement": "Samples average weight", "setting": "[2]", "value": 0.1}, {"measurement": "tumor size decrease", "setting": "SW480 xenograft, intratumoral three times a week, mix 2μg of each peptide or pCAP-325 6μg, live imaging", "value": 93.6, "unit": "%"}]}]}
